Assays:
Nitric oxide synthase 1 = Nitric oxide synthase 1 (Rattus norvegicus, UniProt P29476); assay type: tissue-based, Cerebellum; note: in other assays of this panel Not Active means under 50% inhibition at 10 µM
Glycine receptor = Glycine receptor (Rattus norvegicus, UniProt P22771+P24524+P07727+P20781); assay type: cell membranes, Wistar, Spinal cord, Membrane; note: in other assays of this panel Not Active means under 50% inhibition at 10 µM
D(1A) dopamine receptor = D(1A) dopamine receptor (Homo sapiens, UniProt P21728); test: DRUGMATRIX: Dopamine D1 radioligand binding (ligand: [3H] SCH-23390); assay type: cell membranes, CHO, Membrane; settings: cho; Not Active = under 50% inhibition at 10 µM
[1] = DRUGMATRIX: Potassium Channel [KATP] radioligand binding (ligand: [3H] Glyburide); assay type: cell membranes, Membrane; settings: hit-t15; Not Active = under 50% inhibition at 10 µM
[2] = molecular target: Vascular endothelial growth factor receptor 1 (Homo sapiens, UniProt P17948); assay type: cell-based; settings: huvec; note: in other assays of this panel Not Active means under 50% inhibition at 10 µM
[3] = molecular target: T1, Vasoactive intestinal polypeptide receptor 1 (Homo sapiens, UniProt P32241); assay type: cell membranes, Membrane; settings: ht-29; note: in other assays of this panel Not Active means under 50% inhibition at 10 µM
T1 sequence (P32241 whole entry): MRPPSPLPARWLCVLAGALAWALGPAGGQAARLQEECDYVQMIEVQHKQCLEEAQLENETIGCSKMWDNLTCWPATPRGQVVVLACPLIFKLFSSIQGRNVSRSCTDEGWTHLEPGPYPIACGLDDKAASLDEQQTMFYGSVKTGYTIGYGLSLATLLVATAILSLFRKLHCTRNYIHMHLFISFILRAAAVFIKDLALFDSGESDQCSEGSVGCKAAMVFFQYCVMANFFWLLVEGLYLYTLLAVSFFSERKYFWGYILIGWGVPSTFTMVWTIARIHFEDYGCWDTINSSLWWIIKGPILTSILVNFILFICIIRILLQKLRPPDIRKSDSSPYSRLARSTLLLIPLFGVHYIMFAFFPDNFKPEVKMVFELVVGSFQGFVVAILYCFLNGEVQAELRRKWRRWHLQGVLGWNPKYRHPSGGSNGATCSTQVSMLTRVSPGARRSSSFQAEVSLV

Endothelin-1 receptor = molecular target: T2, Endothelin-1 receptor (Homo sapiens, UniProt P25101); assay type: cell membranes, Membrane; settings: cho-k1; note: in other assays of this panel Not Active means under 50% inhibition at 10 µM
T2 sequence (P25101 whole entry): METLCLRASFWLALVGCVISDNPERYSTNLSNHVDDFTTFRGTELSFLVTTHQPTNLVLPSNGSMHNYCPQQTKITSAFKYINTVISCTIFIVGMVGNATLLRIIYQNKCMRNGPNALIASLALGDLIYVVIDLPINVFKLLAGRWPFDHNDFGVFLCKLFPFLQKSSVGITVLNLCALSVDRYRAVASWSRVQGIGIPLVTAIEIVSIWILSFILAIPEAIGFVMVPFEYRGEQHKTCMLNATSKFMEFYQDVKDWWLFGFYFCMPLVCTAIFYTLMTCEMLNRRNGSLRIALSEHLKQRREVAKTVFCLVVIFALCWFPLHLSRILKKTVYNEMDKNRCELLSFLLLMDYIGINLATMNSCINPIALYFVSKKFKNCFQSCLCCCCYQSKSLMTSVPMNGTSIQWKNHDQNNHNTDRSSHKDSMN

D(4) dopamine receptor = molecular target: T3, D(4) dopamine receptor (Homo sapiens, UniProt P21917); test: DRUGMATRIX: Dopamine D4.2 radioligand binding (ligand: [3H] Spiperone); assay type: cell membranes, CHO-K1, Membrane; settings: cho-k1; Not Active = under 50% inhibition at 10 µM
T3 sequence (P21917 whole entry): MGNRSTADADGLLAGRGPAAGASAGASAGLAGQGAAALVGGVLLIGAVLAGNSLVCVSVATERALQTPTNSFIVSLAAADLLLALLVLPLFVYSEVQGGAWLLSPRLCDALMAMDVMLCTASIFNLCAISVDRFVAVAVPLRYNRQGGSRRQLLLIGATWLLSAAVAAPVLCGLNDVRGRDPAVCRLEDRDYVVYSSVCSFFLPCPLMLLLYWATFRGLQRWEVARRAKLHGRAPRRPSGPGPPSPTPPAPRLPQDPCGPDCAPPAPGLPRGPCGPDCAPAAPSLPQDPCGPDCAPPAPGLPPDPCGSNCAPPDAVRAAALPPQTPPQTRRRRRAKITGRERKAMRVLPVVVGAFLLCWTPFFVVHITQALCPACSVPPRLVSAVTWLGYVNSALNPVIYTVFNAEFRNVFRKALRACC

Nitric oxide synthase 1, sequence (P29476 whole entry): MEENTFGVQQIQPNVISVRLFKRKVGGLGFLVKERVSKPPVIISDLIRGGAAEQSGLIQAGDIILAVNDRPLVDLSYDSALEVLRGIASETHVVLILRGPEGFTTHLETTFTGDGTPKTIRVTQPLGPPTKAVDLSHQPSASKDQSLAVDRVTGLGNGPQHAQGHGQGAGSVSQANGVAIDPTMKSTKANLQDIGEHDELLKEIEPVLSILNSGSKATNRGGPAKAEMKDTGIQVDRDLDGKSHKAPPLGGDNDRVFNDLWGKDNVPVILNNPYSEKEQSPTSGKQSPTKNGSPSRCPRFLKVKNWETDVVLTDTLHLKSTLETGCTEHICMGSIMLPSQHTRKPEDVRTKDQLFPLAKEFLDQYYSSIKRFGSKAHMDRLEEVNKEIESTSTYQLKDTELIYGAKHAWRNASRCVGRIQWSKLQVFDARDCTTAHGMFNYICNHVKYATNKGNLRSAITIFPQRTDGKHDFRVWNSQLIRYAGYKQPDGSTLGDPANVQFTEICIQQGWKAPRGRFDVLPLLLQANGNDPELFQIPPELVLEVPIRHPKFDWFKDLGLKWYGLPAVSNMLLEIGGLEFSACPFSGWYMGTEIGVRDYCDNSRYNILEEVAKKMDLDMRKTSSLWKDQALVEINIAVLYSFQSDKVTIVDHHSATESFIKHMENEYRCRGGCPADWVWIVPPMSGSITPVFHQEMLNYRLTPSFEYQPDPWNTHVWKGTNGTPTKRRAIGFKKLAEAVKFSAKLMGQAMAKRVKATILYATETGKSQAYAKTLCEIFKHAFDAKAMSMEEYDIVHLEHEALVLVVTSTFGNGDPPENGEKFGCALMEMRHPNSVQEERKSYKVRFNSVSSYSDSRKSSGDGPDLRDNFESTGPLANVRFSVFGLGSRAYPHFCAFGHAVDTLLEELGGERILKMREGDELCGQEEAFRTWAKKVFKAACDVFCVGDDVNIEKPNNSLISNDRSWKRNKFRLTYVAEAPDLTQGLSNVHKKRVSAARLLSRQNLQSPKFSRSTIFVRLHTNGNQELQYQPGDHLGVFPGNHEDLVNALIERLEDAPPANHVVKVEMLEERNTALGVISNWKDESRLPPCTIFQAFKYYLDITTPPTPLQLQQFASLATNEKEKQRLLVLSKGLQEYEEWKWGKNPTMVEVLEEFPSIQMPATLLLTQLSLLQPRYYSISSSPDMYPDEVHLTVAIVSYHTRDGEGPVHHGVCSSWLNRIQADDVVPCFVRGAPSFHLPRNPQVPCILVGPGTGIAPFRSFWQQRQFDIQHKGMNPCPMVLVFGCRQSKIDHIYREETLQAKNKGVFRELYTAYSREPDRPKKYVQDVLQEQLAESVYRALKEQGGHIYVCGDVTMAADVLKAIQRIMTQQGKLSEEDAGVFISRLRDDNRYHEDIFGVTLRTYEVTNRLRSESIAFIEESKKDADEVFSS
D(1A) dopamine receptor, sequence (P21728 whole entry): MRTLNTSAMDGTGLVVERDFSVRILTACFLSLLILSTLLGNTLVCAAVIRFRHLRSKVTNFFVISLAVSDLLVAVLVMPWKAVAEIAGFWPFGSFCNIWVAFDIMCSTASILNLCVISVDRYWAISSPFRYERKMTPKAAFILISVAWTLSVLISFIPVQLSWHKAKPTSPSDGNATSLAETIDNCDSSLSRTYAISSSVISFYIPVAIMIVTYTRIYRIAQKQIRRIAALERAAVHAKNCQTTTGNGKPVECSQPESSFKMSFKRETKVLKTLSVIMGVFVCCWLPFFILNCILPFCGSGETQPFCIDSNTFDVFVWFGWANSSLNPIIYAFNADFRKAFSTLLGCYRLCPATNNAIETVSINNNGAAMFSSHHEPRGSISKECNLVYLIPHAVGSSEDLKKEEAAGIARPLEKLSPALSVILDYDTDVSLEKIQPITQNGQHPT
Vascular endothelial growth factor receptor 1, sequence (P17948 whole entry): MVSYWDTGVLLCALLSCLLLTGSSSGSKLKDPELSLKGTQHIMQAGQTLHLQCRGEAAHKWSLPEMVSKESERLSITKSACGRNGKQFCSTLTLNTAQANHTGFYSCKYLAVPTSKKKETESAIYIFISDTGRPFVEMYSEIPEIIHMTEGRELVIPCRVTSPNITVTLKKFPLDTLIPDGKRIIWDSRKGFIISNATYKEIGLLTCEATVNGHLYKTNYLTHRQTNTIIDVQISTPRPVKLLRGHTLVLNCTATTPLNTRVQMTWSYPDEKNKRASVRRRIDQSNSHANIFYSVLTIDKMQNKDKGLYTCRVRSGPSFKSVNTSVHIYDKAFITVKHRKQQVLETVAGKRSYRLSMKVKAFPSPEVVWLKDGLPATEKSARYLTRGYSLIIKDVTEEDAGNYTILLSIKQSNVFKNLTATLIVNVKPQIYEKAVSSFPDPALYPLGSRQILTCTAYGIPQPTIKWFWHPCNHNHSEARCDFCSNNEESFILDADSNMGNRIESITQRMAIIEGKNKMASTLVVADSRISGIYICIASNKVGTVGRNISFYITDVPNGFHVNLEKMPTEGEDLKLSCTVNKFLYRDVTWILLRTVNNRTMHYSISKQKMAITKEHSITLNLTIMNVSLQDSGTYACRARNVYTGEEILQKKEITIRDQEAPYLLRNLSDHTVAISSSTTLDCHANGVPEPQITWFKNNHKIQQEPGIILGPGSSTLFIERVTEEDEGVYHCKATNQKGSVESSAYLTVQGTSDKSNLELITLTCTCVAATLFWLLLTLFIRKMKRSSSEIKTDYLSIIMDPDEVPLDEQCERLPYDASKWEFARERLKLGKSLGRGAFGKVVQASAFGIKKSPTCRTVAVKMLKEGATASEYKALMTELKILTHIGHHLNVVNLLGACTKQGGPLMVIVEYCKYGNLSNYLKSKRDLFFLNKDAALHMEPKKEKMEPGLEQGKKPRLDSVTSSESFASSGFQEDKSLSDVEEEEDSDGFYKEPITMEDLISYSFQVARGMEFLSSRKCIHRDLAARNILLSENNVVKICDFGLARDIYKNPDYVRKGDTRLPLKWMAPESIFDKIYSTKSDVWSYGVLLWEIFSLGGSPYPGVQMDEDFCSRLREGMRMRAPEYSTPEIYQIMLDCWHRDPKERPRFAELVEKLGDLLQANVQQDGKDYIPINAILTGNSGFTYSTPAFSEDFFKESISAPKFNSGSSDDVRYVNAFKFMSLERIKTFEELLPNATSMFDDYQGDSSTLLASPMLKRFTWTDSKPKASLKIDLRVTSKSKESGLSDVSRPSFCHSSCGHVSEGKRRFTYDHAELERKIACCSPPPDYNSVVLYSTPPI

CC(C)NCC(O)COc1ccc(CC(N)=O)cc1 (stereo not drawn) [ATENOLOL]
Not Active: IC50 (Nitric oxide synthase 1) | IC50 (Glycine receptor) | IC50 (D(1A) dopamine receptor) | IC50 [1] | Ki [1] | IC50 [2] | IC50 [3] | IC50 (Endothelin-1 receptor) | IC50 (D(4) dopamine receptor)

OC[C@H]1O[C@@H]2O[C@H]3[C@H](O)[C@@H](O)[C@@H](O[C@H]4[C@H](O)[C@@H](O)[C@@H](O[C@H]5[C@H](O)[C@@H](O)[C@@H](O[C@H]6[C@H](O)[C@@H](O)[C@@H](O[C@H]7[C@H](O)[C@@H](O)[C@@H](O[C@H]1[C@H](O)[C@H]2O)O[C@@H]7CO)O[C@@H]6CO)O[C@@H]5CO)O[C@@H]4CO)O[C@@H]3CO [ALFADEX]
Not Active: IC50 (Nitric oxide synthase 1) | IC50 (Glycine receptor) | IC50 (D(1A) dopamine receptor) | IC50 [1] | Ki [1] | IC50 [2] | IC50 [3] | IC50 (Endothelin-1 receptor) | IC50 (D(4) dopamine receptor)

CC(=O)Nc1ccc2c(c1)Cc1ccccc1-2 [2-ACETYLAMINOFLUORENE]
Not Active: IC50 (Nitric oxide synthase 1) | IC50 (Glycine receptor) | IC50 (D(1A) dopamine receptor) | IC50 [1] | Ki [1] | IC50 [2] | IC50 [3] | IC50 (Endothelin-1 receptor) | IC50 (D(4) dopamine receptor)

CCN1CCN(c2cc3c(cc2F)c(=O)c(C(=O)O)cn3C2CC2)CC1 [ENROFLOXACIN]
Not Active: IC50 (Nitric oxide synthase 1) | IC50 (Glycine receptor) | IC50 (D(1A) dopamine receptor) | IC50 [1] | Ki [1] | IC50 [2] | IC50 [3] | IC50 (Endothelin-1 receptor) | IC50 (D(4) dopamine receptor)

O=C(O)CO [GLYCOLIC ACID]
Not Active: IC50 (Nitric oxide synthase 1) | IC50 (Glycine receptor) | IC50 (D(1A) dopamine receptor) | IC50 [1] | Ki [1] | IC50 [2] | IC50 [3] | IC50 (Endothelin-1 receptor) | IC50 (D(4) dopamine receptor)

CN(Cc1cc(Br)cc(Br)c1N)C1CCCCC1 [BROMHEXINE]
Not Active: IC50 (Nitric oxide synthase 1) | IC50 (Glycine receptor) | IC50 (D(1A) dopamine receptor) | IC50 [1] | Ki [1] | IC50 [2] | IC50 [3] | IC50 (Endothelin-1 receptor) | IC50 (D(4) dopamine receptor)

CC12CCC(CC1)C(C)(C)O2 [EUCALYPTOL]
Not Active: IC50 (Nitric oxide synthase 1) | IC50 (Glycine receptor) | IC50 (D(1A) dopamine receptor) | IC50 [1] | Ki [1] | IC50 [2] | IC50 [3] | IC50 (Endothelin-1 receptor) | IC50 (D(4) dopamine receptor)

C[C@@H]1[C@H](O)[C@@H](C)/C=C/C=C/C=C/C=C/C=C/C=C/C=C/[C@H](O[C@@H]2O[C@H](C)[C@@H](O)[C@H](N)[C@@H]2O)C[C@@H]2O[C@](O)(C[C@@H](O)C[C@@H](O)[C@H](O)CC[C@@H](O)C[C@@H](O)CC(=O)O[C@H]1C)C[C@H](O)[C@H]2C(=O)O [AMPHOTERICIN B]
Not Active: IC50 (Nitric oxide synthase 1) | IC50 (Glycine receptor) | IC50 (D(1A) dopamine receptor) | IC50 [1] | Ki [1] | IC50 [2] | IC50 [3] | IC50 (Endothelin-1 receptor) | IC50 (D(4) dopamine receptor)

Cc1cc(C(C)(C)C)c(O)c(C)c1CC1=NCCN1 [OXYMETAZOLINE]
Not Active: IC50 (Nitric oxide synthase 1) | IC50 (Glycine receptor) | IC50 (D(1A) dopamine receptor) | IC50 [1] | Ki [1] | IC50 [2] | IC50 [3] | IC50 (Endothelin-1 receptor) | IC50 (D(4) dopamine receptor)

CCN(CCO)CCCC(C)Nc1ccnc2cc(Cl)ccc12 (stereo not drawn) [HYDROXYCHLOROQUINE]
Not Active: IC50 (Nitric oxide synthase 1) | IC50 (Glycine receptor) | IC50 (D(1A) dopamine receptor) | IC50 [1] | Ki [1] | IC50 [2] | IC50 [3] | IC50 (Endothelin-1 receptor) | IC50 (D(4) dopamine receptor)

CC12CCC(CC1=O)C2(C)C (stereo not drawn) [CAMPHOR]
Not Active: IC50 (Nitric oxide synthase 1) | IC50 (Glycine receptor) | IC50 (D(1A) dopamine receptor) | IC50 [1] | Ki [1] | IC50 [2] | IC50 [3] | IC50 (Endothelin-1 receptor) | IC50 (D(4) dopamine receptor)

CCC1(c2ccccc2)C(=O)NC(=O)NC1=O [PHENOBARBITAL]
Not Active: IC50 (Nitric oxide synthase 1) | IC50 (Glycine receptor) | IC50 (D(1A) dopamine receptor) | IC50 [1] | Ki [1] | IC50 [2] | IC50 [3] | IC50 (Endothelin-1 receptor) | IC50 (D(4) dopamine receptor)

C[N+](C)(C)CCOP(=O)([O-])OC[C@H](O)CO
Not Active: IC50 (Nitric oxide synthase 1) | IC50 (Glycine receptor) | IC50 (D(1A) dopamine receptor) | IC50 [1] | Ki [1] | IC50 [2] | IC50 [3] | IC50 (Endothelin-1 receptor) | IC50 (D(4) dopamine receptor)

Oc1ccccc1 [PHENOL]
Not Active: IC50 (Nitric oxide synthase 1) | IC50 (Glycine receptor) | IC50 (D(1A) dopamine receptor) | IC50 [1] | Ki [1] | IC50 [2] | IC50 [3] | IC50 (Endothelin-1 receptor) | IC50 (D(4) dopamine receptor)

Nc1nc(F)nc2c1ncn2[C@@H]1O[C@H](CO)[C@@H](O)[C@@H]1O [FLUDARABINE]
Not Active: IC50 (Nitric oxide synthase 1) | IC50 (Glycine receptor) | IC50 (D(1A) dopamine receptor) | IC50 [1] | Ki [1] | IC50 [2] | IC50 [3] | IC50 (Endothelin-1 receptor) | IC50 (D(4) dopamine receptor)

c1ccc(Cn2ccnc2)cc1
Not Active: IC50 (Nitric oxide synthase 1) | IC50 (Glycine receptor) | IC50 (D(1A) dopamine receptor) | IC50 [1] | Ki [1] | IC50 [2] | IC50 [3] | IC50 (Endothelin-1 receptor) | IC50 (D(4) dopamine receptor)

Nc1nc(N)c2nc(CNc3ccc(C(=O)N[C@@H](CCC(=O)O)C(=O)O)cc3)cnc2n1 [AMINOPTERIN]
Not Active: IC50 (Nitric oxide synthase 1) | IC50 (Glycine receptor) | IC50 (D(1A) dopamine receptor) | IC50 [1] | Ki [1] | IC50 [2] | IC50 [3] | IC50 (Endothelin-1 receptor) | IC50 (D(4) dopamine receptor)

Source: ChEMBL document CHEMBL1909046, “DrugMatrix in vitro pharmacology data”
